Test results from patent EP0738149B1 (priority 1994, dated 1995).
Like-named read-outs stand apart in the source and are kept apart here.

Columns and labels:
rats [1] = test: Maximal electroshock (MES) model in rats, p.o.;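 note: rat MES model gauging antiepileptic efficacy versus generalized and partial seizures after oral dosing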; format: in vivo; conditions: Rattus norvegicus, po, read-out: RATS MES 50
mice [2] = test: Maximal electroshock (MES) model in mice, i.p.;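 note: Electroshock-induced convulsion model serving to demonstrate antiepileptic efficacy against generalized and partial seizures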; format: in vivo; conditions: Mus musculus, ip, Table 15
[3] = system: mechanically dissociated neonatal rat cerebellum; test: Enhancement of cell survival in cultures of neonatal rat cerebellum (no NMDA); format: cell-based; conditions: 24 hours after addition, percentage of the number of control cells on the fourth day
Experimental: The cerebellum was aseptically dissociated from 6 or 7-day old rat pups and placed in a 15ml sterile plastic conical tube containing 3ml of Dulbecco's modified Eagle's medium (DMEM) with a high glucose concentration ([…]) and 2mM (v/v) L-glutamine and an antibiotic antimitotic mixture. The cerebella were then dissociated after 20-25 passages through a sterile 13 gauge, 10cm long stainless steel needle attached to a 5ml syringe with an inserted 45 micrometer pore nylon sieve. The dissociated cells were centrifuged at 200g for 5 minutes. […] Cell viability was determined by the tryptan blue exclusion test.
Cells were plated at a density of 200/mm^2 on poly-L-lysine coated surfaces. Poly-L-lysine coated glass coverslips were prepared at least one hour in advance of plating by immersing sterile coverslips in sterile distilled water solution containing 15 microgram/ml poly-L-lysine, and washing in sterile water just prior to use. […] After three days in culture, the media was replaced with media containing the desired test compound. Each test compound was tested in duplicate. Toxic-dose response was determined for each compound.
Cell cultures were grown as described above but in the absence of NMDA and after 3 days a dose of test compound was added. Cell survival was monitored as described above.

rats [4] = conditions: Rattus norvegicus, po, read-out: RATS scMet ED50
mice [5] = conditions: Mus musculus, ip, read-out: MICE scMet ED50, mice, i.p.; Table 16
hypoxic rat = test: Amphetamine-induced stereotype behavior in hypoxic rat, Experiments 2A and 2B; format: in vivo; conditions: for total number of lateral head movements per minute: Exp 2A, 0.5mg/kg daily 29 days, D-amphetamine sulfate 0.5mg/kg s.c., 45-60 min after, Mean ± SEM; for lateral head movements: Exp 2B, 0.3mg/kg daily i.p. 14 days, 12 month-old rats
Experimental: Experiment 2A. Wistar male rats, 15-19 month-old, were exposed to a single hypoxic episode as described above. […] Rats pretreated for 29 days with daily doses of the test drugs (0.5mg/kg), received a sub-cutaneous (s.c.) injection of D-amphetamine sulfate at a dose of 0.5mg/kg. D-amphetamine is known to cause an enhancement of the effects of CNS dopamine by a mechanism involving dopamine release, and blockage of its uptake and its metabolism by MAO. The behavioral manifestation of amphetamine action is a stereotypic pattern of lateral head movements.
Counts of lateral head movements were taken over two successive intervals of 1 min each, 45-60 min after the injection of amphetamine and then averaged.
Experiment 2B. […] The drugs were given by i.p. injection. • 3) Duration of the treatment: 14 days.

hypoxia-lesioned rats = test: Water maze working memory test in hypoxia-lesioned rats, Experiment 3B; format: in vivo, rat; conditions: 0.5mg/kg/day 60 days, ±SEM
Source text: The apparatus used consists of a circular water tank 160cm in diameter filled with water to a depth of 38cm. The water was made cloudy by the addition of milk powder. A clear Plexiglass 15cm platform, supported by a movable stand rest on the bottom of the tank was submerged to a depth of 2cm from the water surface. Normally a swimming rat cannot perceive the location of the platform but it may recall it from a previous experience and training, unless it suffers from some memory impairment. The time taken to locate the platform is measured in seconds and referred to as the latency. During the experiment all orientational cues such as ceiling lights etc. remained unchanged. Longer latencies are observed with rats with some impairment to their memory.
Each rat was given two trails a day for four days, entering the pool from the same point of entry each day. The position of the platform was changed daily to one of four predetermined positions. Each rat was tested twice each day over the four days, referred to as runs 1 and 2 on sessions I-IV. Initially the rat was placed on the platform for 60 seconds. It was then removed and placed at the point of entry and allowed a maximum of 120 seconds to locate the platform (run 1). The second run for that day followed 60 seconds later (run 2). In the second run the rat is expected to find the platform much sooner, having benefitted from its earlier experience. […] The average latency of run 1 in four sessions on four different days was then related to the corresponding parameter of run 2. The smaller the ratio of […], the better the short range learning score.
Table 8. […] The data are the latencies in seconds±SEM that it took a given group to locate a submerged and invisible platform the location of which was shifted from one session to the other. The time interval between sessions was one day, and that between successive runs was 60 seconds. (n=7-8 rats per group) TABLE 8

MAO-A = target: T1, MAO-A (Rattus norvegicus, UniProt P21396); conditions: ex vivo brain
T1 sequence (P21396 1-526): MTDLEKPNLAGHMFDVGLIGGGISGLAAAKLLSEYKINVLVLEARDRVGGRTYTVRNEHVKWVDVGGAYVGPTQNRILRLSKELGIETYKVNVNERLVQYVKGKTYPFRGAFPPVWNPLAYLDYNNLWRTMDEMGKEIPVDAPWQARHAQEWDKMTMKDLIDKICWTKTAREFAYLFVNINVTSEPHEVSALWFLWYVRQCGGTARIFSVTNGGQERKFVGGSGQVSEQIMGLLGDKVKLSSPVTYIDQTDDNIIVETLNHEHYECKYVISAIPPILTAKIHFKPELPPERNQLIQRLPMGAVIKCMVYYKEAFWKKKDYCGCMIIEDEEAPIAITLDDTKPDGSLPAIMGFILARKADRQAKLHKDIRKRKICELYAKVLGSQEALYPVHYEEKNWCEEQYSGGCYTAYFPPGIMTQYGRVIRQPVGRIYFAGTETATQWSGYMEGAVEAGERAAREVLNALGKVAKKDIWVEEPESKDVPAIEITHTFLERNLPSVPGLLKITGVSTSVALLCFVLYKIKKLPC
Source text: The brains of some rats from each experimental group in Exp. 1 (chronic treatment of 80 days) and Exp. 2 (acute treatment of 14 days) were ex vivo analyzed for MAO-A and MAO-B activity.

In the case of `CC(=O)N[C@@H]1CCc2ccccc21` [Example 18, (R)-N-Acetyl-1-aminoindan], the ED50 (rats [1]; rats, p.o., Table 15) is reported as 14 mg/kg, the ED50 (mice [2]) is reported as 31 mg/kg and the “% ENHANCED SURVIVAL” value ([3]; 0.01 µM) is reported as 145%. For the same compound, the “% ENHANCED SURVIVAL” value ([3]; 0.10 µM) was 130%, the “% ENHANCED SURVIVAL” value ([3]; 1.00 µM) was 126% and the ED50 (rats [4]) was over 250 mg/kg. The ED50 (mice [5]) was 66 mg/kg.

For `N[C@@H]1CCc2ccccc21` [R-AI, (R)-1-aminoindan], the “total number of lateral head movements per minute” value (hypoxic rat) was 108 ± 3 per minute, the lateral head movements (hypoxic rat) was 92 ± 3 and the “latency to locate submerged platform” value (hypoxia-lesioned rats; Session I Run 1) was 50 ± 16 s. The “latency to locate submerged platform” value (hypoxia-lesioned rats; Session I Run 2) was 25 ± 12 s, the “latency to locate submerged platform” value (hypoxia-lesioned rats; Session II Run 1) was 25 ± 8 s and the “latency to locate submerged platform” value (hypoxia-lesioned rats; Session II Run 2) was 14 ± 3 s. For the same compound, the “latency to locate submerged platform” value (hypoxia-lesioned rats; Session III Run 1) was 19 ± 5 s, the “latency to locate submerged platform” value (hypoxia-lesioned rats; Session III Run 2) was 14 ± 3 s and the “latency to locate submerged platform” value (hypoxia-lesioned rats; Session IV Run 1) was 15 ± 5 s. For the same compound, the “latency to locate submerged platform” value (hypoxia-lesioned rats; Session IV Run 2) was 6 ± 2 s, the “% inhibition of MAO A acute treatment” value (MAO-A; acute treatment of 14 days) was 13% and the “% inhibition of MAO A chronic treatment” value (MAO-A; chronic treatment of 80 days) was 6%. The ED50 (rats [1]) was 184 mg/kg.

In the case of `C#CCN(C)[C@H](C)Cc1ccccc1` [deprenyl], the “total number of lateral head movements per minute” value (hypoxic rat) is reported as 76 ± 3 per minute, the lateral head movements (hypoxic rat) is reported as 77 ± 3 and the “latency to locate submerged platform” value (hypoxia-lesioned rats; Session I Run 1) is reported as 42 ± 16 s. The “latency to locate submerged platform” value (hypoxia-lesioned rats; Session I Run 2) was 40 ± 17 s, the “latency to locate submerged platform” value (hypoxia-lesioned rats; Session II Run 1) was 42 ± 18 s and the “latency to locate submerged platform” value (hypoxia-lesioned rats; Session II Run 2) was 35 ± 16 s. For the same compound, the “latency to locate submerged platform” value (hypoxia-lesioned rats; Session III Run 1) was 32 ± 15 s, the “latency to locate submerged platform” value (hypoxia-lesioned rats; Session III Run 2) was 8 ± 2 s and the “latency to locate submerged platform” value (hypoxia-lesioned rats; Session IV Run 1) was 19 ± 6 s. For the same compound, the “latency to locate submerged platform” value (hypoxia-lesioned rats; Session IV Run 2) was 12 ± 4 s.
